Measured values reported in publication PMC10376999 (Biomedicines, 2023).
“And” between values parts separate entries of the source, which are not always exact repeats. Identical values can stand only once. Like-named read-outs stand apart in the source and are kept apart here.

How the values were obtained:
[1] = system: RPTEC/TERT1 artificial tubular barrier; conditions: human
Protocol: (§1) Experiments were performed using an immortalized human renal proximal tubular epithelial cell line (RPTEC/TERT1) [21], which was supplied by Evercyte GmbH (Vienna, Austria). […] To bring these cells into culture 0.6 × 10^5 cells were seeded onto 24-well plates Thincert Transwell inserts (0.33 cm^2, 0.4 µm pore size; Greiner Bio-one) and further cultured in ProxUp Basal Medium (Evercyte, Austria). The cells were cultured on Thincert inserts (Greiner Bio-one, Frickenhausen, Germany) for at least 8 days to ensure the formation of a confluent cell monolayer. The cell layer integrity was confirmed by measuring the trans-epithelial electrical resistance (TEER) with an epithelial volt-ohm-meter (EVOM, Millicel, Darmstadt, Germany). Transwell inserts were used for transport experiments when TEER values exceeded 150 Ω × cm^2.
(§2) The transport of R123 and HSA-647 across the tubular barrier was carried out under static and dynamic cultivation conditions. The static conditions were carried out by placing the Transwell^TM inserts on a well plate, with no pressure or flow applied.
(§3) Fluorescence intensity at the beginning and end of the experiments was measured using a microplate reader (Tecan Infinite Pro, Tecan Group, Switzerland), and a miniaturized fluorescence reader (Fluo Sens Integrated, Qiagen, Hilden, Germany) was used for online monitoring. […] Using the calibration curves, the fluorescent intensity (FU) results were converted to concentration (µM).
(§4) During the transport assays, the decrease in the fluorescence intensity in the artificial microfluidic channels mimicking the peritubular capillary structures (in the well, see Figure 2; compartment 7) was measured constantly. R123 (2 μM) and HSA-647 (0.6 µM) were added to the cell culture medium and to the microfluidic channel (Figure 2), and a Transwell insert populated with cells (compartment 4 in Figure 2).
(§5) The whole system was then placed on the Qiagen fluorescence meter in such a way that only the fluorescence signal of the cell culture medium in the channels (compartment 1 in Figure 2) was measured every 120 s for maximum 48 h. Cell-free Transwell^TM inserts were used as a control. Transport assay experiments for each condition were performed and measured in triplicates.

[2] = system: RPTEC/TERT1 artificial tubular barrier; assay: Transport assay of R123 and HSA-647 across the artificial tubular barrier on Transwell inserts, static and in the microphysiological system (pressure, flow); conditions: for Concentration of R123 in the peritubular capillary after 48 h: start 2 µM
Protocol: as §1, §2, §3, §4, §5

MDR1 [3] = conditions: cited from earlier work
MDR1 [4] = target: MDR1 (Homo sapiens, UniProt P08183); assay: Kinetic characterization (Hill fit) of MDR1-mediated R123 transport above the artificial tubular barrier
Chain of MDR1 (Homo sapiens, UniProt P08183) (P08183 whole entry): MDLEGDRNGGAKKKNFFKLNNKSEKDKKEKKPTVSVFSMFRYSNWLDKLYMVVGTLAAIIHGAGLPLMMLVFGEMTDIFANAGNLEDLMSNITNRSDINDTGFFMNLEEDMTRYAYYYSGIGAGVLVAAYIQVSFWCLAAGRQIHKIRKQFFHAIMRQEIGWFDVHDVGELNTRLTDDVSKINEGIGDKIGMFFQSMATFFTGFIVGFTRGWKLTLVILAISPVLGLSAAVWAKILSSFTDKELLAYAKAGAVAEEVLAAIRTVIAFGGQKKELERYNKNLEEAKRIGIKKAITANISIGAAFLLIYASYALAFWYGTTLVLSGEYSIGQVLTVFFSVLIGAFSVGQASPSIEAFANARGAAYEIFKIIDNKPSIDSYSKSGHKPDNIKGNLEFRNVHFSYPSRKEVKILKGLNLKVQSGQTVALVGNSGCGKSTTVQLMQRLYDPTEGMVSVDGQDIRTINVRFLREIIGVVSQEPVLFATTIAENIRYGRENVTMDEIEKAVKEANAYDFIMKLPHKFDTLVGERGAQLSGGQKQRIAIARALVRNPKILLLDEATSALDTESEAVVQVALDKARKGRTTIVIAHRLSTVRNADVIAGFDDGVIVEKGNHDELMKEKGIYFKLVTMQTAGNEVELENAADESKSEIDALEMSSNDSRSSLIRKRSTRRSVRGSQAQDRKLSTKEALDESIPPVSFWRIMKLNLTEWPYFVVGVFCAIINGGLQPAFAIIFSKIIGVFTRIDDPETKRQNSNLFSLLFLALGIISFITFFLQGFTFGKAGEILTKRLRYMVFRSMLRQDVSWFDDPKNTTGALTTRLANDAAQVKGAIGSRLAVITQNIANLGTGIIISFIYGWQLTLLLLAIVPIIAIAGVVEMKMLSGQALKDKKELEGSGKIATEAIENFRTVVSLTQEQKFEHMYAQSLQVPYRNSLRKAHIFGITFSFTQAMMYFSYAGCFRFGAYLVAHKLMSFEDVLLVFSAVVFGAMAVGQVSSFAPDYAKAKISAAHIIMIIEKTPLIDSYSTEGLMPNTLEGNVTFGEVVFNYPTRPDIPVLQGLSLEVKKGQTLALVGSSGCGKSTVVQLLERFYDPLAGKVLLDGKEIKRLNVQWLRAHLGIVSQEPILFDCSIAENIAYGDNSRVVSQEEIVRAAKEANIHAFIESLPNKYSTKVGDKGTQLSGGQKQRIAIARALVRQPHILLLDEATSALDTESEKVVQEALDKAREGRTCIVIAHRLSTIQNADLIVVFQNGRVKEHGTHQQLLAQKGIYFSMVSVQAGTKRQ
Description: (3) V=Vmax[S]^n/Km^n+[S]^n
(§6) In this equation, V is the substrate transport velocity in static conditions, [S] is the substrate (R123) concentration, Vmax is the maximum velocity of R123 transport, Km is Michaelis–Menten constant, and n is the Hill slope or degree, which usually explains the cooperative behavior in substance transport. It should be noted that, in this definition, Km = [S] when V = 0.5 Vmax.
(§7) It is assumed that when the inhibitor is present, any R123 molecule that passed through the membrane passed by means of passive transport [29]. […] (R123 concentration) curve was plotted (Figure 8) using online monitoring results, providing the R123 concentration.

OAT1 = system: OAT1; parameters: method as in PMID 23140242, PMID 22470447; conditions: OAT1-mediated transport, Michaelis–Menten model; cited from earlier work
MDR1 [5] = system: MDR1; parameters: method as in PMID 28487651; conditions: tariquidar in interaction with MDR1; read-out: KI (inhibition constant); cited from earlier work
MDR1 [6] = assay: Quantitative measurement of MDR1 expression by sandwich ELISA; format: cell-based, human; conditions: RPTECs, tariquidar 50 µg/mL, static and dynamic conditions
Protocol: To measure the amount of MDR1 expressed in different conditions, a sandwich enzyme-linked immunosorbent assay (ELISA) kit for MDR1 (antibodies-online, Aachen, Germany) was used. After each experiment, lysed cells were centrifuged at 5000× g for 5 min (at 4 °C); then, the supernatant was collected for ELISA [27]. For each experimental condition, three samples were prepared, with each sample measured in duplicates.
The amount of MDR1 expressed in the cell-based artificial proximal tubule was measured by the ELISA quantitative measurement.
To confirm, we performed the Student’s t-test; there is no significant difference in the mean values of MDR1 concentration in different conditions.

[7] = system: COC(=O)c1ccccc1-c1c2ccc(=N)cc-2oc2cc(N)ccc12
Description: (3) V=Vmax[S]^n/Km^n+[S]^n
as §6, §7

[8] = absence of inhibitor, static, from the literature

COC(=O)c1ccccc1-c1c2ccc(=N)cc-2oc2cc(N)ccc12 [R123, Rhodamine 123]
Passive transport of R123, JR123,F,PT, calculated from equation [1]: 0.026 pmol/min
Passive transport of R123, JR123,P,PT, calculated from equation [1]: 0.0102 pmol/min
Passive permeability P ([1]; 2 µM): 1.5e-08 L/min
Rdiffflow (effect of flow on total transport compared to static) ([1]; 2 µM): 0.0434 pmol/min
Rdiffpressure (effect of pressure on total transport compared to static) ([1]; 2 µM): 0.0009 pmol/min
Total transport rate of R123, JR123flow ([1]; 2 µM): 0.112 pmol/min
Total transport rate of R123, JR123pressure ([1]; 2 µM): 0.069 pmol/min
Total transport rate of R123, JR123static ([1]; 2 µM): 0.068 pmol/min
Sieving coefficient θ ([1]; 48 h, 2 µM): 0.22
Concentration of R123 in the peritubular capillary after 48 h ([2]; 0.13 µL/s flow, no tariquidar): 600 nM
Concentration of R123 in the peritubular capillary after 48 h ([2]; 5 mbar pressure, no tariquidar): 1100 nM
AVG R123 conc. In well, fluorescence endpoint after 48 hours ([2]; flow): 0.92 µM
AVG R123 conc. In well, fluorescence endpoint after 48 hours ([2]; flow inhibited): 0.25 µM
AVG R123 conc. In well, fluorescence endpoint after 48 hours ([2]; pressure): 0.68 µM
AVG R123 conc. In well, fluorescence endpoint after 48 hours ([2]; pressure inhibited): 0.24 µM
AVG R123 conc. In well, fluorescence endpoint after 48 hours ([2]; static inhibited): 0.22 µM
Concentration of R123 in the peritubular capillary after 48 h ([2]; static, no tariquidar): 1500 nM
Concentration of R123 in the peritubular capillary after 48 h ([2]; static, tariquidar present): 1700 nM
Km (MDR1 [3]; MDR1-mediated transport, Michaelis–Menten model): 17.5 ± 2.8 µM
Km (MDR1 [3]; [8]): ~17.5 µM
Vmax (MDR1 [3]; [8]): 0.0525 pmol/min and 0.0525 [22] pmol/min
Km (MDR1 [3]; presence of inhibitor (non-competitive, Km unchanged), static, from the literature): ~17.5 µM
n (Hill slope) (MDR1 [3]; presence of inhibitor, static, from the literature): 2 [22, 28]
Active transport rate of R123, JR123AT,flow (MDR1 [4]; 0.13 µL/s flow, total minus passive transport rate): 0.048 pmol/min
Active transport rate of R123, JR123AT,pressure (MDR1 [4]; 5 mbar pressure, total minus passive transport rate): 0.042 pmol/min
n (Hill slope) (MDR1 [4]; absence of inhibitor, static, present study): 2
V'max (MDR1 [4]; presence of tariquidar, static, calculated from Vmax/(1+[I]/KI) with literature KI = 0.32 nM (ref 32)): 2.18 × 10^−7 pmol/min and 2.18 × 10^−7 (from Equation (3)) [32] pmol/min
V'max (MDR1 [4]; presence of tariquidar, static, from curve fitting, present study): 1.25 × 10^−7 ± 3 × 10^−9 pmol/min and 1.25 × 10^−7 ± 3 × 10^−9 (from curve fitting) pmol/min
n (Hill slope) (MDR1 [4]; presence of tariquidar, static, present study): 2
Active transport rate of R123, JR123AT,static (MDR1 [4]; static, total minus passive transport rate): 0.038 pmol/min
Km (OAT1): 0.3 ± 0.1 µM

COc1cc2c(cc1OC)CN(CCc1ccc(NC(=O)c3cc(OC)c(OC)cc3NC(=O)c3cnc4ccccc4c3)cc1)CC2 [tariquidar]
Ki (MDR1 [5]): 0.32 nM
Effect on the level of MDR1 protein (ELISA) (MDR1 [6]): did not affect the level of MDR1 protein

MDR1 (Homo sapiens)
Km [7]: 17.47 ± 8 µM
